# Measurements published in article PMC11577759, “The structure of lipopeptides impacts their antiviral activity and mode of action against SARS-CoV-2 in vitro” (Applied and Environmental Microbiology, 2024).
# Where two headings read alike, the source gives them in different places. Marks after values point to notes of the source that are not given here. Starred links: 1 amine or outer side, 2 acyl side, 3 side chain; linkers in the order of their positions; H or OH if unused. Positions of bridges follow the written chain, without caps; N, C: chain ends. Non-standard residues stand in square brackets, D forms with d. Residues, ends and D or L forms follow the SMILES beside them. X1 = CC(C)CCCCCCCCC[C@H](CC(=O)[*:1])O[*:2]
# Tests used:
# [1] = Cytotoxicity, CyQUANT XTT cell viability assay; format: cell-based, Chlorocebus sp.; conditions: Chlorocebus sp. (African green monkey), Vero E6 cells
# Description: (§1) Chlorocebus sp. kidney epithelial cells (Vero E6; ATCC VERO C1008) were cultured in Dulbecco’s Modified Eagle medium (DMEM) High Glucose w/ Stable Glutamine w/ Sodium Pyruvate (VWR, USA) supplemented with 2% (vol/vol) of decomplemented fetal bovine serum (FBS, Biowest, France) and 1% (vol/vol) Penicillin-Streptomycin (VWR, USA). The cells were grown at 37°C in a humidified 5% CO2 atmosphere. Cells were routinely passaged when they reached 100% confluence and were passaged until passage 15.
# (§2) The cytotoxic activity of the lipopeptides was assessed using a CyQUANT XTT Cell Viability Assay (Thermo Fisher Scientific) according to the manufacturer’s instructions. […] The cells were then incubated for 72 h at 37°C. The kit was then used following the manufacturer’s instructions, and the plates were read at 450 nm and 660 nm using a Multiskan GO Microplate Spectrophotometer (Thermo Fisher Scientific). The percentage of viable cells was calculated as (AT450 − AT660 − AB450) / (AC450 − AC660) × 100%, where AT450, AT660, AB450, AC450, and AC660 represent the absorbance of the tested well at 450 nm, of the tested well at 660 nm, of the blank (only medium) at 450 nm, of the control cells at 450 nm, and of the control cells at 660 nm, respectively. One hundred percent viability corresponds to the viability of uninfected cells. DMSO concentrations ranging from 0.5% (vol/vol) to 0.001% (vol/vol) were used as a negative control for the assay. Every sample was tested in triplicate.
# SARS-CoV-2 [2] = assay: Replication / antiviral assay, viral RNA in supernatant by RT-qPCR; format: cell-based; conditions: for Viral RNA concentration per milliliter: surfactin 35, WLIP 20, caspofungin 100 µg/mL; for Reduction of viral RNA concentration / Reduction in viral RNA: surfactin 35, WLIP 20, fengycin 50, caspofungin 100 µg/mL; for Reduction in viral RNA: 72 h (Fig. 5)
# SARS-CoV-2 [3] = assay: Binding inhibition: pre-treatment of SARS-CoV-2 and incubation on cells; format: cell-based; conditions: virus pre-treated, surfactin 35, WLIP 20, fengycin 50, caspofungin 100 µg/mL
# SARS-CoV-2 [4] = format: cell-based; conditions: cells pre-treated, surfactin 35, WLIP 20, fengycin 50, caspofungin 100 µg/mL
# SARS-CoV-2 [5] = assay: Budding inhibition assay; format: cell-based; conditions: 10 h pi, surfactin 35 µg/mL
# Description: Fresh medium was added to the cells, and the plates were incubated for 5 h at 37°C. The supernatant was discarded, and lipopeptides were added to the cells. A sample of cell supernatant was taken every hour for 4 h. After infection, the control was kept at 4°C to inhibit the release of virions, and act as a positive control of the experiment. […] Every sample was tested in triplicate.
# SARS-CoV-2 [6] = conditions: surfactin 35, WLIP 20, fengycin 50, caspofungin 100 µg/mL; 100% = untreated infected cells at 37°C
# Description: To determine the impact of lipopeptides on the fusion step, intracellular viral RNA was quantified after infection of cells with SARS-CoV-2 but before the budding step. […] The cells were pre-chilled for 15 min on ice. The cells were infected with SARS-CoV-2 (MOI of 10) in DMEM + 2% FBS and incubated for 2 h on ice with gentle agitation. The inoculum was removed, and the cells were gently washed three times with ice-cold DPBS. The positive control was inactivated to determine the basal viral RNA concentration after binding of the virus. The lipopeptides were added to room temperature DMEM + 2% (vol/vol) FBS and incubated at 37°C for 7 h. […] The cells were rinsed with DPBS, and the wells were dried. The samples were inactivated for 30 min at 70°C before quantification of the viral RNA by RT-qPCR. Every sample was tested in triplicate.
# Vero cells = tested on: Vero cells; parameters: method as in earlier work; conditions: ref 38 (Shekunov et al.); cited from earlier work
# SARS-CoV-2 [7] = tested on: SARS-CoV-2; parameters: method as in doi:10.3390/applmicrobiol2030052; conditions: 1 mg/mL, Vero E6 cells; cited from earlier work
# SARS-CoV-2 [8] = assay: Direct antiviral assay by viral titration (TCID50); conditions: 1 h incubation with virus, vs virus alone
# Vero E6 cells = assay: Cytotoxicity, CyQUANT XTT cell viability assay; format: cell-based, Chlorocebus sp.; conditions: 72 h
# Description: as §1, §2
# SARS-CoV-2 [9] = assay: Binding inhibition: pre-infection treatment of cells; format: cell-based; conditions: cells pre-treated and cleared from unbound lipopeptide before infection; fengycin 50 µg/mL
# Description: For the binding inhibition assays, four different conditions (Fig. 1) were tested to assess the potential of lipopeptides to inhibit the attachment of SARS-CoV-2 to cells in different settings. […] In these assays, SARS-CoV-2 was used at an MOI of 10, and every sample was tested in triplicate. Some steps were performed at 4°C to rigidify the cellular and viral membranes, allowing the virus to bind to the cells but not fuse with the […], as detailed below.
# The cell supernatant was discarded, and the lipopeptides were added to the cells, which were subsequently incubated for 1 h at 37°C with gentle agitation. […] The viral stock was then added to the cells, which were subsequently incubated on ice for 1 h with gentle agitation.
compound,measurement,setting,value
CC(C)CCCCCCCCC[C@@H]1CC(=O)N[C@@H](CCC(=O)O)C(=O)N[C@@H](CC(C)C)C(=O)N[C@H](CC(C)C)C(=O)N[C@@H](C(C)C)C(=O)N[C@@H](CC(=O)O)C(=O)N[C@H](CC(C)C)C(=O)N[C@@H](CC(C)C)C(=O)O1 [Surfactin] (EL[dL]VD[dL]L; linker N-C via X1),IC50 at 72 h,"[1]; Vero E6 cells (kidney epithelial cells), 72 h, XTT, mean (standard deviation), fengycin and caspofungin determined at higher concentrations in a subsequent experiment, read-out: IC50 (half maximal inhibitory concentration, cytotoxicity)",51.5 µg/mL
same,"viability at 72 h, 45 µg/mL",[1]; 45 µg/mL,~0%
same,viability at 72 h,"[1]; surfactin 35, WLIP 20, fengycin 50, caspofungin 100 µg/mL, 72 h, Vero E6 (Fig. 5)",98.5%
same,Maximal RNA reduction at 100 µg/mL,SARS-CoV-2 [2],6.3-log
same,Viral RNA,SARS-CoV-2 [2]; 45 µg/mL,no viral RNA was detected
same,SARS-CoV-2 RNA concentration,"SARS-CoV-2 [2]; 100 µg/mL, at every timepoint (24, 48, 72 h)",non-detectable levels
same,Viral RNA concentration per milliliter,"SARS-CoV-2 [2]; 24 h pi, serum diluted five times",2.5 × 10^2 RNA concentration per milliliter
same,Reduction of viral RNA concentration,"SARS-CoV-2 [2]; 24 h pi, serum diluted five times, […]",1.1 log
same,Viral RNA concentration per milliliter,SARS-CoV-2 [2]; 72 h pi,5.7 × 10^1 RNA concentration per milliliter
same,Reduction of viral RNA concentration,"SARS-CoV-2 [2]; 72 h pi, serum diluted five times, […]",4.6 log
same,EC50,"SARS-CoV-2 [2]; Severe acute respiratory syndrome coronavirus 2, Vero C1008, 72 h, […], mean (standard deviation), read-out: EC50 (half maximal effective concentration)",50 µg/mL
same,Maximal RNA reduction at 100 µg/mL,SARS-CoV-2 [2]; listed as surfactin,6.3 log
same,Reduction in viral RNA,SARS-CoV-2 [2],2.9 log
same,Binding percentage of SARS-CoV-2 to cells,SARS-CoV-2 [3],34.7%
same,Binding percentage of SARS-CoV-2 to cells,SARS-CoV-2 [4],10.0%
same,Reduction of RNA concentration (budding),SARS-CoV-2 [5],1 log
same,RNA concentration per milliliter in supernatant (budding),SARS-CoV-2 [5]; infected cells without treatment 8646.9,858.7 RNA concentration per milliliter
same,Fusion percentage,SARS-CoV-2 [6],10.4%
same,IC50,Vero cells,0.6 µg/mL
same,SARS-CoV-2 infectivity,SARS-CoV-2 [7],able to reduce SARS-CoV-2 infectivity
same,Reduction in viral titer (direct effect),SARS-CoV-2 [8]; 100 µg/mL,1.6 log
same,Reduction in viral titer (direct effect),"SARS-CoV-2 [8]; surfactin 35, WLIP 20, fengycin 50, caspofungin 100 µg/mL, serum diluted five times",did not directly inactivate SARS-CoV-2
Fengycin,Cell viability,"Vero E6 cells; 100 µg/mL, Vero E6",64.1%
same,"IC50 (half maximal inhibitory concentration, cytotoxicity)","Vero E6 cells; Vero E6 cells, XTT, mean (standard deviation), fengycin and caspofungin determined at higher concentrations in a subsequent experiment",295.3 (28.3)^b µg/mL
same,Cell viability,"Vero E6 cells; surfactin 35, WLIP 20, fengycin 50, caspofungin 100 µg/mL, Vero E6 (Fig. 5)",89.9%
same,Reduction of viral RNA concentration,"SARS-CoV-2 [2]; 24 h pi, serum diluted five times, vs infected cells (Fig. 6)",did not reduce the RNA concentration
same,Reduction of viral RNA concentration,"SARS-CoV-2 [2]; 72 h pi, serum diluted five times, vs infected cells (Fig. 6)",0.6 log
same,EC50 (half maximal effective concentration),"SARS-CoV-2 [2]; SARS-CoV-2 MOI 0.01, Vero E6, viral RNA at 72 h pi by RT-qPCR, mean (standard deviation)",71.7 (20.7) µg/mL
same,Reduction in viral RNA,SARS-CoV-2 [2],3.2 log
same,Binding percentage of SARS-CoV-2 to cells,SARS-CoV-2 [3],21.7%
same,Binding percentage of SARS-CoV-2 to cells,SARS-CoV-2 [4],11.3%
same,Binding percentage of SARS-CoV-2 to cells,SARS-CoV-2 [9],54%
same,Fusion percentage,SARS-CoV-2 [6],17.2%
